Reference: patent US20240398812A1 (Caraway Therapeutics, Inc., priority 2021, published 2024)

Key:
[1] = target: human TRPML1 (Homo sapiens, UniProt Q9GZU1); assay: Fluorescent TRPML1 assay (Fluo4-AM calcium fluorescence, HEK-293 Trex cells); format: cell-based
Summary of the method: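 Agonist EC50 from non-linear regression of percent activity versus on-plate controls, calcium signal read at 480/540 nm. Compounds spanned 6 nM–20 μM final in triplicate. Cells: doxycycline-induced HEK-293 Trex with cell-surface human TRPML1 mutant, Fluo4-AM loaded, in Ringer's containing 10 mM calcium.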

[2] = target: T1, TRPML3 (Homo sapiens, UniProt Q8TDD5); assay: Fluorescent TRPML3 assay (as for TRPML1); format: cell-based
T1 construct: expressed in transfected cells
T1 sequence (Q8TDD5 1-553): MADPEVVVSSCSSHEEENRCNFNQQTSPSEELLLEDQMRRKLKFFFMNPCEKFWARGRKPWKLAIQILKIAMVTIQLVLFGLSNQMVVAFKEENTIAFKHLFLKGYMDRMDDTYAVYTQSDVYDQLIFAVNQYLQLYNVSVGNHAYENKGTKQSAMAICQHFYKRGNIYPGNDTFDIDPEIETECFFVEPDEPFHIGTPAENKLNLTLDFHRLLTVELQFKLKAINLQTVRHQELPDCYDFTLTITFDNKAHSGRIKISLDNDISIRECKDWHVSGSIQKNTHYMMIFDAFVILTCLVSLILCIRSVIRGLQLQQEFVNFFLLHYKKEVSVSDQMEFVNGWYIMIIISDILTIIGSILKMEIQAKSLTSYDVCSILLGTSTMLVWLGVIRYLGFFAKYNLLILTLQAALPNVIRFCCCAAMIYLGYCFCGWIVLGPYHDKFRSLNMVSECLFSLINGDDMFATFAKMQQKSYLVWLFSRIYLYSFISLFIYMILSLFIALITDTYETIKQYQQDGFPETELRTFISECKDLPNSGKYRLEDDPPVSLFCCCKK
Summary of the method: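 EC50 came from non-linear regression of percent activity, set against on-plate positive and negative controls, using Fluo4 fluorescence (ex 480, em 540 nm). Compounds ran in triplicate from 6 nM to 20 µM final in half-log steps. Doxycycline-induced (0.5 ug/mL) HEK-293 Trex cells expressing surface-directed mutant channel were in 10 mM calcium Ringer's.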

human TRPML1, sequence (Q9GZU1 whole entry L15A/L16A/L577A/L578A, form open): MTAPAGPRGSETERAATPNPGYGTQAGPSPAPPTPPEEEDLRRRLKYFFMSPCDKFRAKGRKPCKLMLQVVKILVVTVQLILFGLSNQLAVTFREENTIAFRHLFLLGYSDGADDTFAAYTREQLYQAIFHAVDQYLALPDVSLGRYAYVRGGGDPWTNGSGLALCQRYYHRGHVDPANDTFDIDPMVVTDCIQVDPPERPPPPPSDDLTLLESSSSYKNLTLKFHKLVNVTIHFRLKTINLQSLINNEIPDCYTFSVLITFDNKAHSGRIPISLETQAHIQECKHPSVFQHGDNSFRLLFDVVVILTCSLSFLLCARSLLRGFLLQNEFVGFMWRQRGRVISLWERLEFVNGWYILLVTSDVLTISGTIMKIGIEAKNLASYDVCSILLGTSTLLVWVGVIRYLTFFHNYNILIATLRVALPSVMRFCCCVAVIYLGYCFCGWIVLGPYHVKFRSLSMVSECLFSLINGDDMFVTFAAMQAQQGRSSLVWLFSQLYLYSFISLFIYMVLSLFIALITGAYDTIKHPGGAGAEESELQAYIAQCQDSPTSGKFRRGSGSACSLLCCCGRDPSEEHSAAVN

CC(C)C(=O)N1CCN(c2ncnc3c2c(-c2ccccc2F)cn3-c2ncc(C#N)s2)[C@@H](C)C1 [Compound 142, (S)-2-(5-(2-fluorophenyl)-4-(4-isobutyryl-2-methylpiperazin-1-yl)-7H-pyrrolo[2,3-d]pyrimidin-7-yl) thiazole-5-carbonitrile]
EC50 ([1]; Table 3, compounds 101-177): 0.1 to 0.5 µM
EC50 ([2]; Table 3, compounds 101-177): 0.1 to 0.5 µM

C[C@@H]1CN(c2ncnc3c2c(C2CCC2)cn3-c2cccc(F)c2)[C@@H](C)CN1C(=O)C1(F)CC1 [Compound 249, ((2R,5S)-4-(5-cyclobutyl-7-(3-fluorophenyl)-7H-pyrrolo[2,3-d]pyrimidin-4-yl)-2,5-dimethylpiperazin-1-yl)(1-fluorocyclopropyl)methanone]
EC50 ([1]; Table 3, compounds 201-283): 0.1 to 0.5 µM
EC50 ([2]; Table 3, compounds 201-283): 0.5 to 2 µM

CC(C)C(=O)N1C[C@H](C)N(c2ncnc3c2c(N2CCC2)cn3-c2cccc(Cl)c2)C[C@H]1C [Compound 221, 1-((2R,5S)-4-(5-(azetidin-1-yl)-7-(3-chlorophenyl)-7H-pyrrolo[2,3-d]pyrimidin-4-yl)-2,5-dimethylpiperazin-1-yl)-2-methylpropan-1-one]
EC50 ([1]; Table 3, compounds 201-283): < 0.1 µM
EC50 ([2]; Table 3, compounds 201-283): 0.5 to 2 µM

C[C@@H]1CN(c2ncnc3c2c(C(F)(F)F)cn3-c2cccc(C#N)c2)[C@@H](C)CN1C(=O)C(C)(C)C [Compound 222, 3-(4-((2S,5R)-2,5-dimethyl-4-pivaloylpiperazin-1-yl)-5-(trifluoromethyl)-7H-pyrrolo[2,3-d]pyrimidin-7-yl)benzonitrile]
EC50 ([1]; Table 3, compounds 201-283): < 0.1 µM
EC50 ([2]; Table 3, compounds 201-283): 0.1 to 0.5 µM

C[C@H]1CN(C(=O)CCC(F)(F)F)CCN1c1ncnc2c1c(-c1ccccc1F)cn2-c1cc(C#N)ccn1 [Compound 135, (S)-2-(5-(2-fluorophenyl)-4-(2-methyl-4-(4,4,4-trifluorobutanoyl)piperazin-1-yl)-7H-pyrrolo[2,3-d]pyrimidin-7-yl)isonicotinonitrile]
EC50 ([1]; Table 3, compounds 101-177): < 0.1 µM
EC50 ([2]; Table 3, compounds 101-177): 0.1 to 0.5 µM

C[C@@H]1CN(c2ncnc3c2c(N2CCC2)cn3-c2cccc(F)c2)[C@@H](C)CN1C(=O)C(C)(C)C [Compound 219, 1-((2R,5S)-4-(5-(azetidin-1-yl)-7-(3-fluorophenyl)-7H-pyrrolo[2,3-d]pyrimidin-4-yl)2,5-dimethylpiperazin-1-yl)-2,2-dimethylpropan-1-one]
EC50 ([1]; Table 3, compounds 201-283): < 0.1 µM
EC50 ([2]; Table 3, compounds 201-283): < 0.1 µM

CC(C)C(=O)N1CCN(c2ncnc3c2c(-c2ccccn2)cn3-c2cc(C#N)ccn2)[C@@H](C)C1 [Compound 116, (S)-2-(4-(4-isobutyryl-2-methylpiperazin-1-yl)-5-(pyridin-2-yl)-7H-pyrrolo[2,3-d]pyrimidin-7-yl)isonicotinonitrile]
EC50 ([1]; Table 3, compounds 101-177): 0.5 to 2 µM
EC50 ([2]; Table 3, compounds 101-177): 0.5 to 2 µM

CCN(CC)c1cn(-c2cccc(Cl)c2)c2ncnc(N3CCN(C(=O)C(C)C)C[C@@H]3C)c12 [Compound 147, (S)-1-(4-(7-(3-chlorophenyl)-5-(diethylamino)-7H-pyrrolo[2,3-d]pyrimidin-4-yl)-3-methylpiperazin-1-yl)-2-methylpropan-1-one]
EC50 ([1]; Table 3, compounds 101-177): 0.5 to 2 µM
EC50 ([2]; Table 3, compounds 101-177): 0.5 to 2 µM

C[C@H]1CN(C(=O)C2CC2)CCN1c1ncnc2c1c(-c1ccccc1F)cn2-c1cc(C#N)ccn1 [Compound 105, (S)-2-(4-(4-(cyclopropanecarbonyl)-2-methylpiperazin-1-yl)-5-(2-fluorophenyl)-7H-pyrrolo[2,3-d]pyrimidin-7-yl)isonicotinonitrile]
EC50 ([1]; Table 3, compounds 101-177): < 0.1 µM
EC50 ([2]; Table 3, compounds 101-177): < 0.1 µM

CCCN(CC)c1cn(-c2cc(C#N)ccn2)c2ncnc(N3CCN(C(=O)C(C)C)C[C@@H]3C)c12 [Compound 163, (S)-2-(5-(ethyl(propyl)amino)-4-(4-isobutyryl-2-methylpiperazin-1-yl)-7H-pyrrolo[2,3-d]pyrimidin-7-yl)isonicotinonitrile]
EC50 ([1]; Table 3, compounds 101-177): < 0.1 µM
EC50 ([2]; Table 3, compounds 101-177): 0.1 to 0.5 µM

Cc1cn(-c2cc(F)ccn2)c2ncnc(N3C[C@@H](C)N(C(=O)C(C)(C)C)C[C@@H]3C)c12 [Compound 244, 1-((2R,5S)-4-(7-(4-fluoropyridin-2-yl)-5-methyl-7H-pyrrolo[2,3-d]pyrimidin-4-yl)-2,5-dimethylpiperazin-1-yl)-2,2-dimethylpropan-1-one]
EC50 ([1]; Table 3, compounds 201-283): < 0.1 µM
EC50 ([2]; Table 3, compounds 201-283): 0.5 to 2 µM
